This note sets out measurements from PubChem BioAssay (NCI).

Structures are written as SMILES. Several values for one entry are separate records, joined by “and”; a condition that tells them apart may be missing. Identical values can stand only once.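 Each compound was tested at five concentrations against cells in 96-well plates for 48 hours. GI50 marks 50% less growth. The concentration for full growth arrest is given as TGI.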 Some results are limits rather than exact numbers.

Test systems include ACHN renal; CAKI-1 renal; HCC-2998 colon; IGROV1 ovarian; NCI-H226 lung; NCI-H522 lung; OVCAR-3 ovarian; SF-539 CNS; T-47D breast; U251 CNS.
Assay in all cases: NCI tumour cell line growth inhibition, 48 h

Turning to `COc1cc(-c2oc3c(OC)cc(OC)c(O)c3c(=O)c2OC)cc(OC)c1OC`, the TGI is greater than 100 µM in the experiment on ACHN renal; greater than 100 µM in the experiment on CAKI-1 renal; greater than 100 µM in the experiment on HCC-2998 colon; greater than 100 µM in the experiment with IGROV1 ovarian; greater than 100 µM with NCI-H226 lung; 40.2 µM in the experiment on NCI-H522 lung. For the same compound, the TGI in the experiment on OVCAR-3 ovarian, in the experiment on SF-539 CNS, in the experiment with T-47D breast and in the experiment with U251 CNS was greater than 100 µM in each case.

Consider `CCCCCCCCCCCCSC1=C(Cl)C(=O)C(OC)=C(OC)C1=O`, for which the GI50 in the experiment with ACHN renal is 1.52 µM; in the experiment on CAKI-1 renal it was 4.79 µM; in the experiment with HCC-2998 colon it was 2.41 µM; in the experiment with IGROV1 ovarian it was 6.99 µM; in the experiment on NCI-H226 lung, 5.9 µM; with NCI-H522 lung, 0.379 µM. Also, the GI50 in the experiment on OVCAR-3 ovarian was 1.39 µM; in the experiment on SF-539 CNS, 2.81 µM; with T-47D breast, 0.42 µM; in the experiment with U251 CNS, 1.57 µM. The TGI was 18.2 µM in the experiment on ACHN renal; 34.2 µM in the experiment on CAKI-1 renal; 10.9 µM in the experiment on HCC-2998 colon; 20.7 µM in the experiment on IGROV1 ovarian; 28.3 µM in the experiment on NCI-H226 lung; 3.75 µM in the experiment on NCI-H522 lung. The TGI stood at 18.3 µM in the experiment with OVCAR-3 ovarian, 11.9 µM in the experiment on SF-539 CNS, 2.73 µM in the experiment with T-47D breast and 12.2 µM in the experiment with U251 CNS.

Regarding `COc1cc(/C(=C2/O[C@@H]([C@H]3COC(C)(C)O3)[C@H]3OC(C)(C)O[C@@H]23)c2ccc3ccccc3c2)cc(OC)c1OC`, the GI50 in the experiment with ACHN renal is 4.4 µM; in the experiment on CAKI-1 renal, 4.54 µM; in the experiment on HCC-2998 colon, 6.47 µM; with IGROV1 ovarian it was 3.3 µM; in the experiment on NCI-H226 lung it was 3.49 µM; in the experiment with NCI-H522 lung it was 2.27 µM. The GI50 with OVCAR-3 ovarian was 2.39 µM; in the experiment with SF-539 CNS it was 14.3 µM; with T-47D breast, 3.45 µM; in the experiment on U251 CNS, 3.12 µM. Further, the TGI was greater than 100 µM in the experiment with ACHN renal; greater than 100 µM in the experiment on CAKI-1 renal; greater than 100 µM with HCC-2998 colon; 10.9 µM with IGROV1 ovarian; 60 µM in the experiment on NCI-H226 lung; 6.54 µM in the experiment on NCI-H522 lung. For the same compound, the TGI in the experiment on OVCAR-3 ovarian came out at 5.67 µM; in the experiment on SF-539 CNS, 79 µM; in the experiment with T-47D breast, 40.6 µM; with U251 CNS, 11.8 µM.

`COc1cc(C(=O)N2CCN(c3ccccc3)CC2)c2ccccc2n1`: the GI50 with ACHN renal is 0.382 µM; in the experiment with CAKI-1 renal it was 0.043 µM; in the experiment on HCC-2998 colon it was 0.0696 µM; in the experiment with IGROV1 ovarian, 0.0965 µM; with NCI-H226 lung, 12.7 µM; with NCI-H522 lung, 0.0324 µM. Moreover, the GI50 with OVCAR-3 ovarian was 0.0241 µM; with SF-539 CNS, 0.0973 µM; with T-47D breast it was 0.053 µM; in the experiment on U251 CNS, 0.0955 µM. Besides, the TGI is greater than 100 µM in the experiment on ACHN renal; greater than 22.5 µM in the experiment on CAKI-1 renal; 0.486 µM in the experiment with HCC-2998 colon; greater than 100 µM in the experiment with IGROV1 ovarian; greater than 100 µM in the experiment with NCI-H226 lung; 0.475 µM with NCI-H522 lung. Further, the TGI with OVCAR-3 ovarian is 0.0687 µM; in the experiment on T-47D breast, greater than 100 µM; in the experiment with U251 CNS it was greater than 100 µM.

Turning to `C[C@]12CC[C@@H]3c4cc(OC(F)F)c(OS(N)(=O)=O)cc4CC[C@H]3[C@@H]1CC[C@@H]2OS(N)(=O)=O`, the GI50 in the experiment on ACHN renal is 1.8 µM; with CAKI-1 renal it was 1.46 µM; in the experiment on HCC-2998 colon, 3.88 µM; with IGROV1 ovarian, 1.88 µM; in the experiment with NCI-H226 lung, 4.24 µM; in the experiment on NCI-H522 lung it was 0.689 µM. For the same compound, the GI50 in the experiment with OVCAR-3 ovarian is 2.17 µM; with SF-539 CNS, 0.781 µM; with T-47D breast, 1.56 µM; with U251 CNS it was 1.83 µM. The TGI in the experiment on ACHN renal stood at 25.6 µM; in the experiment on CAKI-1 renal it was 19.8 µM; in the experiment with HCC-2998 colon, 17.3 µM; with IGROV1 ovarian, 28.7 µM; in the experiment on NCI-H226 lung, 33.2 µM; with NCI-H522 lung, 12.7 µM. Further, the TGI with OVCAR-3 ovarian came out at 28.4 µM; in the experiment on SF-539 CNS it was 3.84 µM; in the experiment on T-47D breast, 31.7 µM; in the experiment on U251 CNS, 20.2 µM.

As to `Cn1cc(C2=C(c3c4n(c5ccccc35)CCC(CN)C4)C(=O)NC2=O)c2ccccc21` (stereo not drawn), the GI50 with ACHN renal is 3.2 µM; in the experiment on CAKI-1 renal, 3.91 µM; in the experiment with HCC-2998 colon it was 3.49 µM; in the experiment with IGROV1 ovarian it was 4 µM; in the experiment with NCI-H226 lung it was 3.34 µM; with NCI-H522 lung, 3.84 µM. Also, the GI50 is 3.58 µM in the experiment on OVCAR-3 ovarian, 3.63 µM in the experiment on SF-539 CNS, 3.17 µM in the experiment on T-47D breast and 2.74 µM with U251 CNS. Further, the TGI in the experiment with ACHN renal amounted to 7.02 µM; with CAKI-1 renal it was 8.75 µM; in the experiment on HCC-2998 colon it was 7.14 µM; in the experiment on IGROV1 ovarian, 8 µM; in the experiment on NCI-H226 lung it was 11.1 µM; with NCI-H522 lung it was 7.46 µM. Also, the TGI with OVCAR-3 ovarian came to 7.63 µM; in the experiment on SF-539 CNS, 7.16 µM; in the experiment with T-47D breast it was 7.49 µM; in the experiment with U251 CNS, 6 µM.

With `O=C1NC2C(=CC(O)C(O)C2O)c2cc3c(cc21)OCO3` (stereo not drawn), the GI50 is 0.334 µM in the experiment with ACHN renal; 0.331 µM and 0.158 µM in the experiment with CAKI-1 renal; 0.179 µM in the experiment on HCC-2998 colon; 0.393 µM in the experiment with IGROV1 ovarian; 0.598 µM and 0.388 µM in the experiment on NCI-H226 lung; 0.352 µM and 0.105 µM in the experiment on NCI-H522 lung. Besides, the GI50 with OVCAR-3 ovarian is 0.441 µM; in the experiment with SF-539 CNS it was 0.237 µM; in the experiment on U251 CNS, 0.325 µM and 0.0688 µM. The TGI in the experiment on ACHN renal is 1.57 µM; with CAKI-1 renal, 1.7 µM and 1.8 µM; in the experiment with HCC-2998 colon, 1.38 µM and 1.67 µM; in the experiment with IGROV1 ovarian, 9.21 µM and 3.01 µM; in the experiment on NCI-H226 lung it was 4.46 µM and 2.34 µM; in the experiment with NCI-H522 lung, 0.574 µM and 1.41 µM. Moreover, the TGI was 2.36 µM and 1.42 µM in the experiment on OVCAR-3 ovarian; 1.41 µM and 1.85 µM in the experiment with SF-539 CNS; 1.5 µM in the experiment on T-47D breast; 0.437 µM and 3.07 µM in the experiment on U251 CNS.
